Tested on: MV-4-11 cells
Test: Gene expression microarray analysis (Affymetrix PrimeView) and GSEA
Assay type: cell-based, human
Design: RFU PODN (11730768_x_at) / Fold change /veh PODN (11730768_x_at) / RFU LINC00158 (11744669_a_at) / Fold change /veh LINC00158 (11744669_a_at) / RFU DUSP10 (11751237_a_at) / Fold change /veh DUSP10 (11751237_a_at) / RFU ID3 (11757404_x_at) / Fold change /veh ID3 (11757404_x_at) / RFU PLEKHG5 (11737974_s_at) / Fold change /veh PLEKHG5 (11737974_s_at) / RFU LRRC4B (11730491_at) / Fold change /veh LRRC4B (11730491_at) / RFU GIMAP4 (11747438_a_at) / Fold change /veh GIMAP4 (11747438_a_at) / RFU KRT8 (11758183_x_at) / Fold change /veh KRT8 (11758183_x_at) / RFU CNN1 (11734310_a_at) / Fold change /veh CNN1 (11734310_a_at) / RFU VPS37D (11726825_at) / Fold change /veh VPS37D (11726825_at) / RFU C10orf10 (11716522_x_at) / Fold change /veh C10orf10 (11716522_x_at) / RFU KIR2DL2 /// KIR2DL4 /// KIR2DL5A /// KIR2DL5B /// KIR2DS1 /// KIR2DS2 /// KIR2DS3 /// KIR2DS4 /// KIR3DL3 /// KIR3DL3 /// KIR3DS1 (11738374_at) / Fold change /veh KIR2DL2 /// KIR2DL4 /// KIR2DL5A /// KIR2DL5B /// KIR2DS1 /// KIR2DS2 /// KIR2DS3 /// KIR2DS4 /// KIR3DL3 /// KIR3DL3 /// KIR3DS1 (11738374_at) / RFU C1QL1 (11718748_at) / Fold change /veh C1QL1 (11718748_at) / RFU TMPRSS4 (11747572_a_at) / Fold change /veh TMPRSS4 (11747572_a_at) / RFU HAMP (11756126_x_at) / Fold change /veh HAMP (11756126_x_at) / RFU RNFT2 (11725882_a_at) / Fold change /veh RNFT2 (11725882_a_at) / RFU NR4A2 (11747474_a_at) / Fold change /veh NR4A2 (11747474_a_at) / RFU ABCC12 (11746883_a_at) / Fold change /veh ABCC12 (11746883_a_at) / RFU TMEM136 (11760407_x_at) / Fold change /veh TMEM136 (11760407_x_at) / RFU CLDN22 /// WWC2 (11732394_at) / Fold change /veh CLDN22 /// WWC2 (11732394_at) / RFU HLA-DPB1 (11760878_x_at) / Fold change /veh HLA-DPB1 (11760878_x_at) / RFU SPINT1 (11716480_a_at) / Fold change /veh SPINT1 (11716480_a_at) / RFU GAP43 (11754022_s_at) / Fold change /veh GAP43 (11754022_s_at) / RFU A4GNT (11735810_at) / Fold change /veh A4GNT (11735810_at) / RFU PRB3 (11715151_x_at) / Fold change /veh PRB3 (11715151_x_at) / RFU TUBB4B (11761932_at) / Fold change /veh TUBB4B (11761932_at) / RFU CAPN14 (11732068_a_at) / Fold change /veh CAPN14 (11732068_a_at) / RFU TMCC2 (11721928_a_at) / Fold change /veh TMCC2 (11721928_a_at) / RFU IRGQ (11745062_a_at) / Fold change /veh IRGQ (11745062_a_at) / RFU FAM174B (11720279_a_at) / Fold change /veh FAM174B (11720279_a_at) / RFU TMPRSS4 (11748680_a_at) / Fold change /veh TMPRSS4 (11748680_a_at) / RFU FAM212B (11763350_a_at) / Fold change /veh FAM212B (11763350_a_at) / RFU PLEKHG5 (11743358_a_at) / Fold change /veh PLEKHG5 (11743358_a_at) / RFU ZSCAN30 (11745921_a_at) / Fold change /veh ZSCAN30 (11745921_a_at) / RFU CMKLR1 (11741424_a_at) / Fold change /veh CMKLR1 (11741424_a_at) / RFU LOC101060620 /// MAPK8IP1 (11723275_at) / Fold change /veh LOC101060620 /// MAPK8IP1 (11723275_at) / RFU SPTSSB (11747773_x_at) / Fold change /veh SPTSSB (11747773_x_at) / RFU PRSS12 (11739890_at) / Fold change /veh PRSS12 (11739890_at) / RFU BIN1 (11741810_x_at) / Fold change /veh BIN1 (11741810_x_at) / RFU WNT11 (11732464_a_at) / Fold change /veh WNT11 (11732464_a_at) / RFU C10orf10 (11716521_a_at) / Fold change /veh C10orf10 (11716521_a_at) / RFU C5orf56 (11738089_at) / Fold change /veh C5orf56 (11738089_at) / RFU CYB561 (11721691_x_at) / Fold change /veh CYB561 (11721691_x_at) / RFU ANKRD19P (11752326_a_at) / Fold change /veh ANKRD19P (11752326_a_at) / RFU OR2T12 /// OR2T33 /// OR2T8 (11738714_s_at) / Fold change /veh OR2T12 /// OR2T33 /// OR2T8 (11738714_s_at) / RFU VCAN (11748164_a_at) / Fold change /veh VCAN (11748164_a_at) / RFU JSRP1 (11732532_at) / Fold change /veh JSRP1 (11732532_at) / RFU KRTAP10-11 (11738290_x_at) / Fold change /veh KRTAP10-11 (11738290_x_at) / RFU MYO3A (11730013_a_at) / Fold change /veh MYO3A (11730013_a_at) / RFU EBF3 (11725865_a_at) / Fold change /veh EBF3 (11725865_a_at) / RFU CAMK2N1 (11719241_x_at) / Fold change /veh CAMK2N1 (11719241_x_at) / RFU C5orf56 (11738088_a_at) / Fold change /veh C5orf56 (11738088_a_at) / RFU OLFML3 (11715873_a_at) / Fold change /veh OLFML3 (11715873_a_at) / RFU LOC100653217 /// NTM (11731650_a_at) / Fold change /veh LOC100653217 /// NTM (11731650_a_at) / RFU MAPK11 (11762145_a_at) / Fold change /veh MAPK11 (11762145_a_at) / RFU FIZ1 (11724087_x_at) / Fold change /veh FIZ1 (11724087_x_at) / RFU OASL (11726364_x_at) / Fold change /veh OASL (11726364_x_at) / RFU SOX15 (11748057_x_at) / Fold change /veh SOX15 (11748057_x_at) / RFU CD79A (11719716_a_at) / Fold change /veh CD79A (11719716_a_at) / RFU HIST1H1D (11736915_at) / Fold change /veh HIST1H1D (11736915_at) / RFU CASKIN2 (11723855_a_at) / Fold change /veh CASKIN2 (11723855_a_at) / RFU LOC730098 (11760151_x_at) / Fold change /veh LOC730098 (11760151_x_at) / RFU OR4N2 (11742367_at) / Fold change /veh OR4N2 (11742367_at) / RFU PRRT2 (11749266_a_at) / Fold change /veh PRRT2 (11749266_a_at) / RFU SNX32 (11753110_a_at) / Fold change /veh SNX32 (11753110_a_at) / RFU CDHR5 (11726645_a_at) / Fold change /veh CDHR5 (11726645_a_at) / RFU RCAN1 (11760418_a_at) / Fold change /veh RCAN1 (11760418_a_at) / RFU FAM167A (11723789_a_at) / Fold change /veh FAM167A (11723789_a_at) / RFU FAM26E (11764081_at) / Fold change /veh FAM26E (11764081_at) / RFU ISYNA1 (11749810_s_at) / Fold change /veh ISYNA1 (11749810_s_at) / RFU ACY1 (11761880_at) / Fold change /veh ACY1 (11761880_at) / RFU 11764098_at / Fold change /veh 11764098_at / RFU SAMD14 (11745864_x_at) / Fold change /veh SAMD14 (11745864_x_at) / RFU NPB (11741838_a_at) / Fold change /veh NPB (11741838_a_at) / RFU TMPRSS6 (11731388_a_at) / Fold change /veh TMPRSS6 (11731388_a_at) / RFU KRTAP10-2 (11738614_at) / Fold change /veh KRTAP10-2 (11738614_at) / RFU ARHGAP8 /// PRR5-ARHGAP8 (11727945_x_at) / Fold change /veh ARHGAP8 /// PRR5-ARHGAP8 (11727945_x_at) / RFU KRTAP5-7 /// NADSYN1 (11734609_at) / Fold change /veh KRTAP5-7 /// NADSYN1 (11734609_at) / RFU RASL12 (11751679_a_at) / Fold change /veh RASL12 (11751679_a_at) / RFU CDKN2B (11736163_a_at) / Fold change /veh CDKN2B (11736163_a_at) / RFU PRF1 (11729649_at) / Fold change /veh PRF1 (11729649_at) / RFU, ZNF638 /// ZNF638-IT1 / Fold change vs veh, ZNF638 /// ZNF638-IT1 / RFU, PANK3 / Fold change vs veh, PANK3 / RFU, SH3YL1 / Fold change vs veh, SH3YL1 / RFU, ZEB2 / Fold change vs veh, ZEB2 / RFU, NRIP1 / Fold change vs veh, NRIP1 / RFU, PTTG1IP / Fold change vs veh, PTTG1IP / RFU, CAPN2 / Fold change vs veh, CAPN2 / RFU, MED14 / Fold change vs veh, MED14 / RFU, SNORA58 / Fold change vs veh, SNORA58 / RFU, C1orf63 / Fold change vs veh, C1orf63 / RFU, LRRFIP1 / Fold change vs veh, LRRFIP1 / RFU, NDUFAF7 / Fold change vs veh, NDUFAF7 / RFU, SLC12A2 / Fold change vs veh, SLC12A2 / RFU, IBTK / Fold change vs veh, IBTK / RFU, ESF1 / Fold change vs veh, ESF1 / Fold change vs veh, TMEM50B / RFU, TAOK1 / Fold change vs veh, TAOK1 / RFU, ACBD3 / Fold change vs veh, ACBD3 / RFU, TMA16 / Fold change vs veh, TMA16 / RFU, RWDD3 / Fold change vs veh, RWDD3 / RFU, BCAT1 / Fold change vs veh, BCAT1 / RFU, EDEM3 / Fold change vs veh, EDEM3 / RFU, TMEM33 / Fold change vs veh, TMEM33 / RFU, WDR75 / Fold change vs veh, WDR75 / RFU, AHCTF1 / Fold change vs veh, AHCTF1 / RFU, TFRC / Fold change vs veh, TFRC / RFU, ZDHHC17 / Fold change vs veh, ZDHHC17 / RFU, NOM1 / Fold change vs veh, NOM1 / RFU, ARL8B / Fold change vs veh, ARL8B / RFU, ZBTB11 / Fold change vs veh, ZBTB11 / RFU, TAMM41 / Fold change vs veh, TAMM41 / RFU, KIAA1704 /// LOC100996395 / Fold change vs veh, KIAA1704 /// LOC100996395 / RFU, ING1 / Fold change vs veh, ING1 / RFU, TRMT61B / Fold change vs veh, TRMT61B / RFU, FUBP3 / Fold change vs veh, FUBP3 / RFU, TP53 / Fold change vs veh, TP53 / RFU, TNKS2 / Fold change vs veh, TNKS2 / RFU, ZFP14 / Fold change vs veh, ZFP14 / RFU, ACTR2 / Fold change vs veh, ACTR2 / RFU, PPP3R1 / Fold change vs veh, PPP3R1 / RFU, PIK3R1 / Fold change vs veh, PIK3R1 / RFU, HNRNPA1 / Fold change vs veh, HNRNPA1 / RFU, RNF170 / Fold change vs veh, RNF170 / RFU, ZNF28 / Fold change vs veh, ZNF28 / RFU, RNGTT / Fold change vs veh, RNGTT / RFU, OGT / Fold change vs veh, OGT / RFU, BRD1 / Fold change vs veh, BRD1 / RFU, MARS / Fold change vs veh, MARS / RFU, ZNF655 / Fold change vs veh, ZNF655 / RFU, FAHD1 / Fold change vs veh, FAHD1 / RFU, BDP1 / Fold change vs veh, BDP1 / RFU, LRRCC1 / Fold change vs veh, LRRCC1 / RFU, ARID1A / Fold change vs veh, ARID1A / RFU, ZNF146 / Fold change vs veh, ZNF146 / RFU, ZNF330 / Fold change vs veh, ZNF330 / RFU, GPN3 / Fold change vs veh, GPN3 / RFU, C9orf123 / Fold change vs veh, C9orf123 / RFU, N4BP2L2 / Fold change vs veh, N4BP2L2 / RFU, ARFIP1 / Fold change vs veh, ARFIP1 / RFU, FAM179B / Fold change vs veh, FAM179B / RFU, BCL10 / Fold change vs veh, BCL10 / RFU, UHRF1BP1L / Fold change vs veh, UHRF1BP1L / RFU, BET1 / Fold change vs veh, BET1 / RFU, CNOT2 / Fold change vs veh, CNOT2 / RFU, ZNF268 / Fold change vs veh, ZNF268 / Fold change vs veh, ZNF507 / RFU, DGCR2 / Fold change vs veh, DGCR2 / RFU, WDSUB1 / Fold change vs veh, WDSUB1 / Fold change vs veh, HSP90B1 /// MIR3652 / RFU, ADSS / Fold change vs veh, ADSS / RFU, GK / Fold change vs veh, GK / RFU, ZNF148 / Fold change vs veh, ZNF148 / RFU, TAF9 / Fold change vs veh, TAF9 / RFU, SLC1A5 / Fold change vs veh, SLC1A5 / RFU, SLMO2 / Fold change vs veh, SLMO2 / RFU, ABCC4 / Fold change vs veh, ABCC4 / RFU, LOC101060439 /// RAP1B / Fold change vs veh, LOC101060439 /// RAP1B / RFU, RFX7 / Fold change vs veh, RFX7 / RFU, GTPBP10 / Fold change vs veh, GTPBP10 / RFU, CNEP1R1 / Fold change vs veh, CNEP1R1 / RFU, BIVM-ERCC5 /// ERCC5 / Fold change vs veh, BIVM-ERCC5 /// ERCC5 / RFU, ILF3 / Fold change vs veh, ILF3 / RFU 11762660_at / Fold change /veh 11762660_at / RFU VCAN (11757783_s_at) / Fold change /veh VCAN (11757783_s_at) / RFU DDX43 (11728927_at) / Fold change /veh DDX43 (11728927_at) / RFU KRT8 (11758188_x_at) / Fold change /veh KRT8 (11758188_x_at) / RFU NKD1 (11759106_at) / Fold change /veh NKD1 (11759106_at) / RFU SRD5A1 (11742802_a_at) / Fold change /veh SRD5A1 (11742802_a_at) / RFU TPSAB1 /// TPSB2 (11721975_s_at) / Fold change /veh TPSAB1 /// TPSB2 (11721975_s_at) / RFU GSTM3 (11746129_a_at) / Fold change /veh GSTM3 (11746129_a_at) / RFU IL23R (11737362_x_at) / Fold change /veh IL23R (11737362_x_at) / RFU TMEM51 (11727254_a_at) / Fold change /veh TMEM51 (11727254_a_at) / RFU PIWIL2 (11732686_x_at) / Fold change /veh PIWIL2 (11732686_x_at) / RFU ORM1 (11744905_x_at) / Fold change /veh ORM1 (11744905_x_at) / RFU CCDC152 (11743942_at) / Fold change /veh CCDC152 (11743942_at) / RFU ECM1 (11717891_a_at) / Fold change /veh ECM1 (11717891_a_at) / RFU IL23R (11748794_a_at) / Fold change /veh IL23R (11748794_a_at) / RFU TNFAIP8L3 (11732012_x_at) / Fold change /veh TNFAIP8L3 (11732012_x_at) / RFU MBOAT4 (11741988_at) / Fold change /veh MBOAT4 (11741988_at) / RFU 11764193_at / Fold change /veh 11764193_at / RFU TMEM53 (11763286_at) / Fold change /veh TMEM53 (11763286_at) / RFU MAGEB2 (11727129_at) / Fold change /veh MAGEB2 (11727129_at) / RFU TMEM200A (11744735_a_at) / Fold change /veh TMEM200A (11744735_a_at) / RFU CCDC152 (11751479_a_at) / Fold change /veh CCDC152 (11751479_a_at) / RFU FAM211A (11726209_a_at) / Fold change /veh FAM211A (11726209_a_at) / RFU RGS16 (11746705_a_at) / Fold change /veh RGS16 (11746705_a_at) / RFU VCAN (11755009_s_at) / Fold change /veh VCAN (11755009_s_at) / RFU RHOB (11743442_s_at) / Fold change /veh RHOB (11743442_s_at) / RFU RGS16 (11720943_a_at) / Fold change /veh RGS16 (11720943_a_at) / RFU RGS16 (11720944_at) / Fold change /veh RGS16 (11720944_at) / RFU, VPS4B / Fold change vs veh, VPS4B / RFU, CREB1 / Fold change vs veh, CREB1 / RFU, DNAJC13 / Fold change vs veh, DNAJC13 / RFU, GNAQ / Fold change vs veh, GNAQ / RFU, CDK5R1 / Fold change vs veh, CDK5R1 / RFU, ZRANB3 / Fold change vs veh, ZRANB3 / RFU, CUL4A / Fold change vs veh, CUL4A / RFU, CCNY / Fold change vs veh, CCNY / RFU, UFL1 / Fold change vs veh, UFL1 / RFU, COG3 / Fold change vs veh, COG3 / RFU, DIAPH2 / Fold change vs veh, DIAPH2 / RFU, SKA2 / Fold change vs veh, SKA2 / RFU, AFF3 / Fold change vs veh, AFF3 / RFU, LMF1 / Fold change vs veh, LMF1 / RFU, IPO11 / Fold change vs veh, IPO11 / RFU, DFFB / Fold change vs veh, DFFB / RFU, FOXP1 / Fold change vs veh, FOXP1 / RFU, CARD8 / Fold change vs veh, CARD8 / RFU, STRN3 / Fold change vs veh, STRN3 / RFU, ADK / Fold change vs veh, ADK / RFU, RASSF2 / Fold change vs veh, RASSF2 / RFU, WIPF1 / Fold change vs veh, WIPF1 / RFU, LARP1B / Fold change vs veh, LARP1B / RFU, RASA1 / Fold change vs veh, RASA1 / RFU, RB1 / Fold change vs veh, RB1 / RFU, PPFIA1 / Fold change vs veh, PPFIA1 / RFU, MAT2A / Fold change vs veh, MAT2A / RFU, CCT5 / Fold change vs veh, CCT5 / RFU, WDR92 / Fold change vs veh, WDR92 / RFU, CUX1 / Fold change vs veh, CUX1 / RFU, TTC7A / Fold change vs veh, TTC7A / RFU, TMEM135 / Fold change vs veh, TMEM135 / RFU, DEPTOR / Fold change vs veh, DEPTOR / RFU, CPM / Fold change vs veh, CPM / RFU, DNAJB6 / Fold change vs veh, DNAJB6 / RFU, CACNA2D3 / Fold change vs veh, CACNA2D3 / RFU, DTX4 / Fold change vs veh, DTX4 / RFU, TFCP2 / Fold change vs veh, TFCP2 / RFU, GMCL1 /// GMCL1P1 / Fold change vs veh, GMCL1 /// GMCL1P1 / RFU, AEBP2 / Fold change vs veh, AEBP2 / RFU, SNHG1 /// SNORD22 /// SNORD25 /// SNORD26 /// SNORD27 /// SNORD28 /// SNORD29 /// SNORD31 / Fold change vs veh, SNHG1 /// SNORD22 /// SNORD25 /// SNORD26 /// SNORD27 /// SNORD28 /// SNORD29 /// SNORD31 / Fold change (Aza/veh), C12orf56 (ProbeSet 11735607_a_at) / Fold change (ACY-1035/veh), C12orf56 (ProbeSet 11735607_a_at) / Fold change (Aza/veh), FGFR1OP (ProbeSet 11751329_s_at) / Fold change (ACY-1035/veh), FGFR1OP (ProbeSet 11751329_s_at) / Fold change (Aza/veh), VPS36 (ProbeSet 11739960_a_at) / Fold change (ACY-1035/veh), VPS36 (ProbeSet 11739960_a_at) / RFU SYPL1 (11715823_x_at) / Fold change /veh SYPL1 (11715823_x_at) / RFU IGFBP7 (11715501_s_at) / Fold change /veh IGFBP7 (11715501_s_at) / RFU REEP3 (11722064_at) / Fold change /veh REEP3 (11722064_at) / RFU IGLL1 (11728026_x_at) / Fold change /veh IGLL1 (11728026_x_at): dose or concentration left out as unconfirmed
Conditions: ProbeSet 11722302_a_at; LIST B

Nc1ncn([C@@H]2O[C@H](CO)[C@@H](O)[C@H]2O)c(=O)n1 [azacitidine]
RFU, LRRFIP1: 130.71 RFU

From publication PMC5218480 (PLoS ONE, 2017)
